How the values were obtained:
[1] = Stability in rat liver microsomes; format: in vitro ADME; conditions: rat liver microsomes 0.5 mg protein/mL, 1 μM test substance, β-NADPH 1 mM, 37° C.; for half-life at 1 μM: read-out: Rat t1/2
Outline: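 Incubations at 37 °C used canine or rat liver microsomes, phosphate buffer containing 3 mM MgCl2, NADPH (no-NADPH controls at 0 and 60 min), and compound from a 10 μM working solution.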

THP-1 cell NLRP3 = molecular target: T1, THP-1 cell NLRP3 (Homo sapiens, UniProt Q96P20); experiment: Inhibitory activity against cell NLRP3 inflammasomes in THP-1 cells (LPS + nigericin, ELISA of supernatant); format: cell-based; conditions: PMA-differentiated THP-1 cells, LPS 500 ng/mL 3 h, compound 1 h, nigericin 30 min; human IL-10 (so in the source) in supernatant by ELISA
T1 construct: endogenous in cells; host or cells: THP-1 cells, PMA-differentiated, stimulated with LPS and nigericin
T1 sequence (Q96P20 whole entry): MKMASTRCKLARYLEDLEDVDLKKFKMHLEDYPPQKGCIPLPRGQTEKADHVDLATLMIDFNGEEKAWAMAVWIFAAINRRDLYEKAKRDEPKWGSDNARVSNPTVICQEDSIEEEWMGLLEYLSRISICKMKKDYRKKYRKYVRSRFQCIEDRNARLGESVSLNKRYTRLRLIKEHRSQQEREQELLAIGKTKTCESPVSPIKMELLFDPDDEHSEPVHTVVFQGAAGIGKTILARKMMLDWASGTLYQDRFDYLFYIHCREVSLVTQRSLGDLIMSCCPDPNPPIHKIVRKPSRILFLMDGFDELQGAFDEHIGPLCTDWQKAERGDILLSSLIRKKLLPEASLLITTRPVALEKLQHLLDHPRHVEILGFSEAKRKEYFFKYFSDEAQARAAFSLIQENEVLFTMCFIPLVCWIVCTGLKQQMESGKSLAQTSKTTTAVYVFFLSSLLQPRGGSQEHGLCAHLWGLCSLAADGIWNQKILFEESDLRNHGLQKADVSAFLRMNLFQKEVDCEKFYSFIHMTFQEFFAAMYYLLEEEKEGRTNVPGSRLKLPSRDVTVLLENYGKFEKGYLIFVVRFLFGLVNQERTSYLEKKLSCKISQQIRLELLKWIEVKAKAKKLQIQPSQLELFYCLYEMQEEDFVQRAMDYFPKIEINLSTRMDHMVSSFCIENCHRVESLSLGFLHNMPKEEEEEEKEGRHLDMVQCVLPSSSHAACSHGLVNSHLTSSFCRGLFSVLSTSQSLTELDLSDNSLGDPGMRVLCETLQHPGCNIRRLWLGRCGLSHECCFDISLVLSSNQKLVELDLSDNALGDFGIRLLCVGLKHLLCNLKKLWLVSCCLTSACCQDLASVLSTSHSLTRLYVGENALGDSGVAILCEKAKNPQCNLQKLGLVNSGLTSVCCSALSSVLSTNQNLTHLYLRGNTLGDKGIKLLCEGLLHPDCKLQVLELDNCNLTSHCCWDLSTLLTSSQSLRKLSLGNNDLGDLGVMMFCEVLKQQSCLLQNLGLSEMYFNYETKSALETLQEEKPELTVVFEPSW
Outline: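 PMA-differentiated (10 ng/mL, 16 h) THP-1 cells primed with 500 ng/mL LPS for 3 h in serum-free medium, then compound for 1 h (DMSO stock diluted 1:1000). Nigericin added for 30 min at 37 °C; IL-1β (printed as IL-10) in supernatant measured by ELISA.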

## C#Cc1ccc(-c2nnc(N[C@@H]3CCCN(C)C3)c(=O)n2C)c(O)c1 [Compound 23, (R)-3-(4-ethynyl-2-hydoxyphenyl)-4-methyl-6-((1-methylpiperidin-3-yl)amino)-1,2,4-triazin-5(4H)-one]
[1]
  Rat t1/2: →∞
THP-1 cell NLRP3
  IC50: 2.4 nM

## C#Cc1ccc(-c2nnc(N[C@@H]3CCCN(CCO)C3)cc2C2CC2)c(O)c1 [Compound 45, (R)-2-(4-Cyclopropyl-6-((1-(2-hydroxyethyl)piperidin-3-yl)amino)pyridazin-3-yl)-5-ethynylphenol]
[1]
  microsomal CLint at 1 μM: 6.8 µL/min/mg
  half-life at 1 μM: 204 min
THP-1 cell NLRP3
  IC50: 0.7 nM

## C#Cc1ccc(-c2nnc(N[C@@H]3CCCN(C)C3)cc2C(C)C)c(O)c1 [Compound 81, (R)-5-ethynyl-2-(4-isopropyl-6-((1-methylpiperidin-3-yl)amino)pyridazin-3-yl)phenol]
[1]
  microsomal CLint at 1 μM: 3 µL/min/mg
  half-life at 1 μM: 462 min
THP-1 cell NLRP3
  IC50: 1.1 nM

## C#Cc1ccc(-c2nnc(N[C@@H]3CCCN(C)C3)c(C#N)c2C)c(O)c1 [Compound 103, (R)-6-(4-ethynyl-2-hydroxyphenyl)-5-methyl-3-((1-methylpiperidin-3-yl)amino)pyridazine-4-carbonitrile]
[1]
  microsomal CLint at 1 μM: 8.2 µL/min/mg
  half-life at 1 μM: 169 min
THP-1 cell NLRP3
  IC50: 0.6 nM
